Experimental data taken from patent US20170173186A9, “MURINE WOUND MODEL FOR TESTING PATHOGEN VIRUENCE AND THERAPEUTIC EFFICACY” (priority 2013, published 2017).
Values after ≈ are worked out from the molar mass of the structure shown.

How the values were obtained:
A. baumannii AB5075 [1] = test: Murine dorsal wound infection model, CFU burden in wound tissue (4 mm biopsy punch); format: in vivo, Acinetobacter baumannii
A. baumannii AB5075 [2] = test: Murine dorsal wound infection model, percent weight change; format: in vivo, Acinetobacter baumannii; conditions: for median loss of infection-day body weight: Day 1 post-infection; for maximal median loss of infection-day body weight: maximal loss over days 1 through 6 post-infection; for duration of significantly less weight loss than placebo: post-infection, Kruskal-Wallis test followed by Dunn's post-test
Method: All procedures were performed in accordance with protocol IB02-10 that was approved by the Walter Reed Army Institute of Research (WRAIR)/Navy Medical Research Center (NMRC) Institutional Animal Care and Use Committee (Silver Spring, Md.). Mice received 150 mg/kg and 100 mg/kg cyclophosphamide intraperitoneal (IP) injections, before wounding and infection, on days −4 and −1, respectively (22, 24). On Day 0, the day of wounding and inoculum, mice were anesthetized with ketamine 130 mg/kg (KETASET®, Fort Dodge Animal Health, Fort Dodge, Iowa), xylazine 10 mg/kg (ANASED®, Lloyd Inc. Shenandoah, Iowa), and buprenorphine 0.05 mg/kg (Hospira Inc., Lake Forest, Ill.) injections. Hair was clipped from the cervical to mid-lumbar dorsum, and the skin scrubbed with iodine solution followed by an ethanol rinse. A 6.0 mm disposable skin biopsy punch (VisiPunch, Huot Instruments, LLC, Menomonee Falls, Wis.) was used to create a full-thickness skin defect overlying thoracic spinal column and the adjacent musculature. Twenty-five μL containing 5.0×10^4 AB5075 cells in a PBS suspension were pipetted into the wound, and allowed to absorb for three minutes. A circular cutout (30 mm diameter) of transparent dressing (TEGADERM™Roll, 3M Health Care, St. Paul, Minn.) was placed over the wound and secured with tissue adhesive (VETBOND™, 3M Animal Care, St. Paul, Minn.). […] However, the size of the wound was increased to 6 mm in order to facilitate subsequent punch biopsies to measure bacterial burden in the wound tissue.
(§1) Beginning four hours post-inoculation, mice were treated with either rifampin at 25 mg/kg IP injection once daily, doxycycline 25 mg/kg IP injection twice daily, or an equivalent vehicle control over the course of a six day treatment period (25, 26). On Day 7 the transparent dressing was removed, treatment discontinued, and the wound monitored for closure through Day 25.
All statistical analyses were carried out using Graphpad Prism software. […] CFU burdens were compared via the Kruskal-Wallis test followed by Dunn's multiple comparison tests. All results were considered significant if p<0.05.

A. baumannii AB5075 [3] = test: Murine dorsal wound infection model (neutropenic BALB/c mice), wound area measurement and gross pathology; format: in vivo, Acinetobacter baumannii
A. baumannii AB5075 [4] = test: Murine dorsal wound infection model, PNA-FISH examination of AB5075 localization in wound tissue; format: in vivo, Acinetobacter baumannii; conditions: Day 1
Method: All procedures were performed in accordance with protocol IB02-10 that was approved by the Walter Reed Army Institute of Research (WRAIR)/Navy Medical Research Center (NMRC) Institutional Animal Care and Use Committee (Silver Spring, Md.). Mice received 150 mg/kg and 100 mg/kg cyclophosphamide intraperitoneal (IP) injections, before wounding and infection, on days −4 and −1, respectively (22, 24). On Day 0, the day of wounding and inoculum, mice were anesthetized with ketamine 130 mg/kg (KETASET®, Fort Dodge Animal Health, Fort Dodge, Iowa), xylazine 10 mg/kg (ANASED®, Lloyd Inc. Shenandoah, Iowa), and buprenorphine 0.05 mg/kg (Hospira Inc., Lake Forest, Ill.) injections. […]
as §1
One mouse from each treatment group (placebo, rifampin, and doxycycline) and from representative time points (Days 1, 3, and 7) were sacrificed in order to characterize the dissemination of AB5075 within wound tissue via peptide nucleic acid fluorescence in situ hybridization (PNA-FISH) (33). […]

A. baumannii AB5075 [5] = test: Murine dorsal wound infection model, time course histopathology of wounds (H&E); format: in vivo, Acinetobacter baumannii
A. baumannii AB5075 [6] = conditions: cited from earlier work
A. baumannii AB5075 [7] = test: Murine dorsal wound infection model, SEM analysis of biofilm on occlusive dressings and wound tissue; format: in vivo, Acinetobacter baumannii
[8] = Day 3 post-infection, BALB/c mice, IP treatment from 4 h post-inoculation (rifampin 25 mg/kg once daily, doxycycline 25 mg/kg twice daily)
[9] = Day 8 post-infection, one day after occlusive dressing removed, six day IP treatment
[10] = Day 15 post-infection, six day IP treatment
[11] = Day 21 post-infection, six day IP treatment

C[C@H]1c2cccc(O)c2C(=O)C2=C(O)[C@]3(O)C(=O)C(C(N)=O)=C(O)[C@@H](N(C)C)[C@@H]3[C@@H](O)[C@@H]21 [doxycycline]
median CFU burden (A. baumannii AB5075 [1]; 3 days post-infection): 5.0×10^4 CFU per 4 mm tissue biopsy punch
median CFU burden (A. baumannii AB5075 [1]; Day 7 post-infection): 6.2×10^5 CFU per 4 mm tissue biopsy punch
median CFU burden (A. baumannii AB5075 [1]; after 24 hours of infection): 5.9×10^5 CFU per 4 mm tissue biopsy punch
median loss of infection-day body weight (A. baumannii AB5075 [2]): 5.3%
maximal median loss of infection-day body weight (A. baumannii AB5075 [2]): 11.8%
duration of significantly less weight loss than placebo (A. baumannii AB5075 [2]): 4 days
median wound size (A. baumannii AB5075 [3]; [8]): 31.0 mm^2
median wound size (A. baumannii AB5075 [3]; [9]): 29.0 mm^2
median wound size (A. baumannii AB5075 [3]; [10]): 2.0 mm^2
median wound size (A. baumannii AB5075 [3]; [11]): 0.0 mm^2

CO[C@H]1/C=C/O[C@@]2(C)Oc3c(C)c(O)c4c(O)c(c(/C=N/N5CCN(C)CC5)c(O)c4c3C2=O)NC(=O)/C(C)=C\C=C\[C@H](C)[C@H](O)[C@@H](C)[C@@H](O)[C@@H](C)[C@H](OC(C)=O)[C@@H]1C [rifampin]
A. baumannii cells in wound bed by Acinetobacter-specific PNA probe (A. baumannii AB5075 [4]): clearance of A. baumannii cells below the level of detection at all levels of the wound bed
histopathology of wound (H&E) (A. baumannii AB5075 [5]; Day 15): re-epithelization over the wound was observed
histopathology of wound (H&E) (A. baumannii AB5075 [5]; Day 23): signs of contractile healing and re-epithelized wound beds
median CFU burden (A. baumannii AB5075 [1]; 3 days post-infection): 4.7×10^4 CFU per 4 mm tissue biopsy punch
median CFU burden (A. baumannii AB5075 [1]; Day 7 post-infection): 6.1×10^5 CFU per 4 mm tissue biopsy punch
median CFU burden (A. baumannii AB5075 [1]; after 24 hours of infection): 5.7×10^5 CFU per 4 mm tissue biopsy punch
reduction of median CFU burden versus placebo (A. baumannii AB5075 [1]; after 24 hours of infection): 1 log
MIC (A. baumannii AB5075 [6]): 4.0 mg/L (≈ 4.86 µM)
median loss of infection-day body weight (A. baumannii AB5075 [2]): 6.7%
maximal median loss of infection-day body weight (A. baumannii AB5075 [2]): 6.8%
duration of significantly less weight loss than placebo (A. baumannii AB5075 [2]): 5 days
median wound size (A. baumannii AB5075 [3]; [8]): 35.0 mm^2
median wound size (A. baumannii AB5075 [3]; [9]): 34.5 mm^2
median wound size (A. baumannii AB5075 [3]; [10]): 5.5 mm^2
median wound size (A. baumannii AB5075 [3]; [11]): 0.0 mm^2
biofilm on occlusive dressing by SEM (A. baumannii AB5075 [7]; Day 3 (rifampin: Days 3 or 7) post-infection): no biofilm formation was observed on dressings
bacteria on occlusive dressing by SEM (A. baumannii AB5075 [7]; one day post-infection): no substantial amount of bacteria observed on the dressing
